Data taken from publication PMC2630410 (Molecular and biochemical parasitology, 2008).
Read-outs that look alike come from different tables or passages of the source.

Columns and labels:
TbNT11.1 [1] = target: T1, TbNT11.1 (Trypanosoma brucei brucei, UniProt Q38CR7); assay type: cell-based; details: for Inhibition of [3H]hypoxanthine uptake by nucleosides: 1 mM nucleoside, Δlmant3[pTbNT11.1] parasites; for Inhibition of [3H]hypoxanthine uptake by nucleosides / Inhibition of hypoxanthine uptake by pyrimidine nucleobases: data not shown; for Inhibition of hypoxanthine uptake by pyrimidine nucleobases: concentrations up to 1 mM; for Inhibition of [3H]hypoxanthine uptake by TbNT11.1 (in words): 1 μM [3H]hypoxanthine, graded concentrations of inhibitor
TbNT11.1 [2] = target: T1, TbNT11.1; assay type: cell-based; details: for TbNT11.1-mediated uptake of radiolabeled substrate: 1 μM [3H]substrate, Δlmant3[pTbNT11] line
TbNT11.1 [3] = target: T1, TbNT11.1; assay type: cell-based; details: for Inhibition of [14C]pentamidine uptake by unlabeled nucleobase: 1 mM unlabeled substrate, TbNT11-expressing oocytes
TbNT12.1 [4] = target: T2, TbNT12.1 (Trypanosoma brucei brucei, UniProt Q57TQ7); experiment: Uptake of adenine and pentamidine by TbNT12.1 expressed in Xenopus oocytes; assay type: cell-based; details: for Transport by TbNT12.1 (in words): versus water-injected oocytes
T2 sequence (Q57TQ7 1-462): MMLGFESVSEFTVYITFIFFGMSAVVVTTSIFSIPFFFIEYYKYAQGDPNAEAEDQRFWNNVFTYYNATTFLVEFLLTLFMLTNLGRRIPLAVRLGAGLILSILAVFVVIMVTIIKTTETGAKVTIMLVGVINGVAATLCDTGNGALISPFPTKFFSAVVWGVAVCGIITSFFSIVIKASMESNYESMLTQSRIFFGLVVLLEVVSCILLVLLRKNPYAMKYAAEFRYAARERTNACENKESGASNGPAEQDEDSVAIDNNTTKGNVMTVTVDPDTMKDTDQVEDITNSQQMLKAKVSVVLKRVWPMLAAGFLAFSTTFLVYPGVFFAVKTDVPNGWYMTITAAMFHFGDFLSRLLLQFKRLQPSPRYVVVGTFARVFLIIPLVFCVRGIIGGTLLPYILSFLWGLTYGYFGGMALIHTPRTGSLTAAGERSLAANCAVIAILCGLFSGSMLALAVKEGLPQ

TbNT12.2 [5] = experiment: Uptake of adenine and pentamidine by TbNT12.2 expressed in Xenopus oocytes; assay type: cell-based, Trypanosoma brucei; details: for Transport by TbNT12.2 (in words): Xenopus oocytes, versus water-injected oocytes
TbNT12.1 [6] = target: T2, TbNT12.1; experiment: Adenine uptake by TbNT12.1 expressed in Δlmant3 promastigotes; assay type: cell-based; details: 50 μM adenine, n=3
TbNT12.2 [7] = experiment: Adenine uptake by TbNT12.2 expressed in Δlmant3 promastigotes; assay type: cell-based, Trypanosoma brucei; details: 50 μM adenine, n=3
Δlmant3 parasites = experiment: Background adenine uptake by Δlmant3 parasites; assay type: cell-based, Leishmania major; details: 50 μM adenine
PPT1 = experiment: Inhibition of [14C]pentamidine uptake by PF trypanosomes; assay type: cell-based, Trypanosoma brucei; details: 1 mM nucleobase, 25 μM [14C]pentamidine; data not shown
O=c1[nH]cnc2nc[nH]c12 = experiment: cells, lysate or membranes; details: other: substrate saturation, 1 min, Δlmant3[pTbNT11.1], n=3
TbNT11.1 [8] = target: T1, TbNT11.1; experiment: Inhibition of [3H]adenine uptake by TbNT11.1 in Δlmant3[pTbNT11.1] parasites; assay type: cell-based
TbNT11.1 [9] = target: T1, TbNT11.1; assay type: cell-based; details: oocytes expressing TbNT11.1; data not shown
TbNT8.1 = TbNT8.1 (Trypanosoma brucei brucei, UniProt Q386F1); assay type: cell-based; details: 12.5 μM [3H]hypoxanthine
TbNT11.1 [10] = target: T1, TbNT11.1; experiment: [3H]adenosine uptake by Δldnt1/Δldnt2[pTbNT11.1] line; assay type: cell-based; details: 0.5 μM or 100 μM [3H]adenosine; data not shown
[11] = substrate: N=C(N)c1ccc(OCCCCCOc2ccc(C(=N)N)cc2)cc1; experiment: Uptake of adenine and pentamidine by TbNT12.1 expressed in Xenopus oocytes; assay type: cell-based, Trypanosoma brucei; details: other: Xenopus oocytes, n=3; 16.0 °C
[12] = transport rates linear from 0–1 mM adenine

## OC[C@H]1O[C@@H](n2cnc3c(O)nc(O)nc32)[C@H](O)[C@@H]1O [xanthosine]
TbNT11.1 [1]
  Inhibition of [3H]hypoxanthine uptake by nucleosides: failure

## Nc1ncnc2[nH]cnc12 [adenine]
TbNT11.1 [2]
  TbNT11.1-mediated uptake of radiolabeled substrate: mediated uptake
TbNT11.1 [1]
  Ki: 8 µM
TbNT11.1 [3]; 50 μM [14C]pentamidine
  Inhibition of [14C]pentamidine uptake by unlabeled nucleobase: very poor inhibitor
TbNT12.1 [4]; Xenopus oocytes
  Transport by TbNT12.1 (in words): transport
TbNT12.1 [4]; [12]
  Affinity of TbNT12.1 for substrate: low
TbNT12.2 [5]
  Transport by TbNT12.2 (in words): transport
TbNT12.2 [5]; [12]
  Affinity of TbNT12.2 for substrate: low
TbNT12.1 [6]
  Uptake of adenine, TbNT12.1 in Δlmant3 promastigotes: 103 ± 2 pmol/min/10^7 parasites
TbNT12.2 [7]
  Uptake of adenine, TbNT12.2 in Δlmant3 promastigotes: 86.5 ± 1.1 pmol/min/10^7 parasites
Δlmant3 parasites
  Background uptake of adenine in Δlmant3 parasites: 41.8 ± 1.4 pmol/min/10^7 parasites
PPT1
  Inhibition of [14C]pentamidine uptake by PFs: did not inhibit

## O=c1cc[nH]c(=O)[nH]1 [uracil]
TbNT11.1 [1]
  Inhibition of hypoxanthine uptake by pyrimidine nucleobases: did not inhibit

## TbNT11.1 (Trypanosoma brucei brucei TREU927)
O=c1[nH]cnc2nc[nH]c12
  Km: 141 µM

## O=c1[nH]cnc2c1ncn2[C@@H]1O[C@H](CO)[C@@H](O)[C@H]1O [inosine]
TbNT11.1 [1]
  Inhibition of [3H]hypoxanthine uptake by nucleosides: failure

## O=c1[nH]c(=O)c2nc[nH]c2[nH]1 [xanthine]
TbNT11.1 [2]
  TbNT11.1-mediated uptake of radiolabeled substrate: mediated uptake
TbNT11.1 [2]; read-out: Km for uptake by TbNT11.1, substrate saturation, 1 min, Δlmant3[pTbNT11.1], n=3
  Km: 7.2 ± 2.3 µM
TbNT11.1 [3]; 50 μM [14C]pentamidine
  Inhibition of [14C]pentamidine uptake by unlabeled nucleobase: partially inhibited
TbNT12.1 [4]; Xenopus oocytes
  Transport by TbNT12.1 (in words): did not mediate the uptake
TbNT12.2 [5]
  Transport by TbNT12.2 (in words): did not mediate the uptake

## Nc1nc(N)nc(Nc2ccc([As]3SCC(CO)S3)cc2)n1 (centres unmarked) [melarsoprol]
TbNT11.1 [8]
  EC50: 12.9 µM
TbNT11.1 [9]
  Melarsoprol uptake over background of water injected oocytes: no uptake

## O=c1[nH]cnc2nc[nH]c12 [hypoxanthine]
TbNT11.1 [2]
  TbNT11.1-mediated uptake of radiolabeled substrate: mediated uptake
TbNT11.1 [3]; 50 μM [14C]pentamidine
  Inhibition of [14C]pentamidine uptake by unlabeled nucleobase: partially inhibited
TbNT12.1 [4]; Xenopus oocytes
  Transport by TbNT12.1 (in words): did not mediate the uptake
TbNT12.2 [5]
  Transport by TbNT12.2 (in words): did not mediate the uptake
PPT1
  Inhibition of [14C]pentamidine uptake by PFs: did not inhibit

## Nc1nc2nc[nH]c2c(=O)[nH]1 [guanine]
TbNT11.1 [2]
  TbNT11.1-mediated uptake of radiolabeled substrate: not a substrate
TbNT11.1 [1]
  Inhibition of [3H]hypoxanthine uptake by TbNT11.1 (in words): an inhibitor
TbNT12.1 [4]; Xenopus oocytes
  Transport by TbNT12.1 (in words): did not mediate the uptake
TbNT12.2 [5]
  Transport by TbNT12.2 (in words): did not mediate the uptake
PPT1
  Inhibition of [14C]pentamidine uptake by PFs: did not inhibit

## Nc1cc[nH]c(=O)n1 [cytosine]
TbNT11.1 [1]
  Inhibition of hypoxanthine uptake by pyrimidine nucleobases: did not inhibit

## N=C(N)c1ccc(OCCCCCOc2ccc(C(=N)N)cc2)cc1 [pentamidine]
TbNT11.1 [1]
  EC50: 4.8 µM
TbNT11.1 [8]
  EC50: 9.6 µM
TbNT8.1
  Inhibition of hypoxanthine transport by TbNT8.1: did not significantly inhibit
TbNT11.1 [3]; 50 μM [14C]pentamidine, versus water injected oocytes
  Uptake of [14C]pentamidine by TbNT11.1 cRNA-injected oocytes: much more rapidly than control water injected oocytes
TbNT11.1 [3]; read-out: Km for pentamidine uptake by TbNT11.1, Xenopus oocytes, 1 h, n=3
  Km: 407 ± 119 µM
TbNT12.1 [4]; Xenopus oocytes, n=3
  Vmax for pentamidine uptake by TbNT12.1: 21.8 ± 6.5 pmol/h/oocyte
TbNT12.1 [4]; Xenopus oocytes
  Transport by TbNT12.1 (in words): also transport
TbNT12.2 [5]
  Transport by TbNT12.2 (in words): also transport

## Nc1ncnc2c1ncn2[C@@H]1O[C@H](CO)[C@@H](O)[C@H]1O [adenosine]
TbNT11.1 [1]
  Inhibition of [3H]hypoxanthine uptake by TbNT11.1 (in words): an inhibitor
TbNT11.1 [10]
  Uptake of [3H]adenosine: did not take up

## Nc1nc2c(ncn2[C@@H]2O[C@H](CO)[C@@H](O)[C@H]2O)c(=O)[nH]1 [guanosine]
TbNT11.1 [1]
  Inhibition of [3H]hypoxanthine uptake by nucleosides: failure

## Oc1ncnc2[nH]ncc12 [allopurinol, 4-hydroxypyrazolo[3,4-d]-pyrimidine-4-one]
TbNT11.1 [2]
  TbNT11.1-mediated uptake of radiolabeled substrate: promoted uptake
TbNT11.1 [1]
  Ki: 67 µM

B1: TbNT12.1 (Trypanosoma brucei brucei TREU927) (protein)
chain: MMLGFESVSEFTVYITFIFFGMSAVVVTTSIFSIPFFFIEYYKYAQGDPNAEAEDQRFWNNVFTYYNATTFLVEFLLTLFMLTNLGRRIPLAVRLGAGLILSILAVFVVIMVTIIKTTETGAKVTIMLVGVINGVAATLCDTGNGALISPFPTKFFSAVVWGVAVCGIITSFFSIVIKASMESNYESMLTQSRIFFGLVVLLEVVSCILLVLLRKNPYAMKYAAEFRYAARERTNACENKESGASNGPAEQDEDSVAIDNNTTKGNVMTVTVDPDTMKDTDQVEDITNSQQMLKAKVSVVLKRVWPMLAAGFLAFSTTFLVYPGVFFAVKTDVPNGWYMTITAAMFHFGDFLSRLLLQFKRLQPSPRYVVVGTFARVFLIIPLVFCVRGIIGGTLLPYILSFLWGLTYGYFGGMALIHTPRTGSLTAAGERSLAANCAVIAILCGLFSGSMLALAVKEGLPQ
[11]
  Km: 161 ± 8 µM
